Assays:
[1] = molecular target: T1, 5-hydroxytryptamine receptor 3A (Homo sapiens, UniProt P46098); test: Binding affinity for 5-hydroxytryptamine 3 receptor by displacement of [3H](R)-zacopride from ondansetron-treated NG-108-15 cell membranes
T1 sequence (P46098 whole entry): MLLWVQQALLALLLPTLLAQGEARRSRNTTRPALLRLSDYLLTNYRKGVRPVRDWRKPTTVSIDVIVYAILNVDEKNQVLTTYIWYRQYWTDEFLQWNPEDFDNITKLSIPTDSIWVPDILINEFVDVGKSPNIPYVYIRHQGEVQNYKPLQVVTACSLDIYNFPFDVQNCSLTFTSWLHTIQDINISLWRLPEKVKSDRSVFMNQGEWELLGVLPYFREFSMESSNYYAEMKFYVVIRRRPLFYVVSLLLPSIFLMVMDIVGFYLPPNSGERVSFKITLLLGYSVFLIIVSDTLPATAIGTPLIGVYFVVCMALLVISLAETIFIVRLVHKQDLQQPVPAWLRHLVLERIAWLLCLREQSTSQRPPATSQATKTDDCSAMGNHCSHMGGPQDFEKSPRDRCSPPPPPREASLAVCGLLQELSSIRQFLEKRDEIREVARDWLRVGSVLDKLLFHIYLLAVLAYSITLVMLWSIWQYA

[2] = molecular target: T1, 5-hydroxytryptamine receptor 3A; test: Binding affinity for 5-hydroxytryptamine 3 receptor by displacement of [3H]-BRL 43694 from NG-108-15 cell membranes
[3] = molecular target: 5-hydroxytryptamine receptor 4 (Cavia porcellus, UniProt O70528); test: Binding affinity for 5-hydroxytryptamine 4 receptor by displacement of [3H]GR-113808 from guinea pig brain striatum.
5-hydroxytryptamine receptor 4, sequence (O70528 whole entry): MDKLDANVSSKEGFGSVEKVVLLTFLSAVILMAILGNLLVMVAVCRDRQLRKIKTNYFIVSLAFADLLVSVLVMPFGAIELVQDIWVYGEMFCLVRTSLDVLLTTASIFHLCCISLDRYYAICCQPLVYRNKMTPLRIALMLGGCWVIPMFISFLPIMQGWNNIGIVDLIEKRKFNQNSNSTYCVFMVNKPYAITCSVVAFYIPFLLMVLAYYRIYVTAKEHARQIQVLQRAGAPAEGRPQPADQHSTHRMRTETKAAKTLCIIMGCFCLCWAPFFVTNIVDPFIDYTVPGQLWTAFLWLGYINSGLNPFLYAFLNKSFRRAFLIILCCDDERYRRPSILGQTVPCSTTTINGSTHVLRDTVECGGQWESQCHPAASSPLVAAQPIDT

[4] = molecular target: T2, Serotonin 3 (5-HT3) receptor (Rattus norvegicus, UniProt P35563+Q9JJ16); test: Binding affinity for 5-hydroxytryptamine 3 receptor by displacement of racemic [3H]zacopride from rat cortex
T2 sequence (P35563 whole entry): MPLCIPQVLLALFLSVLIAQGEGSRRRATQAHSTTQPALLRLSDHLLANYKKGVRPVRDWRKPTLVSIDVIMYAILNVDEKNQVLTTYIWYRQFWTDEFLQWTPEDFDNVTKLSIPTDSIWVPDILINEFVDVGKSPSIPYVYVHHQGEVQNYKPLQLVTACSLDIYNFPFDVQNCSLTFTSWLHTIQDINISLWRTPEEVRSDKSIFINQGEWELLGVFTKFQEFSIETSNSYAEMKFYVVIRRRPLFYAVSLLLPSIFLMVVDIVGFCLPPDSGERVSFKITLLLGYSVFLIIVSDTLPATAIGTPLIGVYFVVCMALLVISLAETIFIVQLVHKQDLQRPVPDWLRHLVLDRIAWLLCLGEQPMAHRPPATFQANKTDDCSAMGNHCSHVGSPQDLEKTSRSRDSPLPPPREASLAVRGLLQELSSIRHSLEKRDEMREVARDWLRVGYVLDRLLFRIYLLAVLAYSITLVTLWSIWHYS
T2 sequence (Q9JJ16 whole entry): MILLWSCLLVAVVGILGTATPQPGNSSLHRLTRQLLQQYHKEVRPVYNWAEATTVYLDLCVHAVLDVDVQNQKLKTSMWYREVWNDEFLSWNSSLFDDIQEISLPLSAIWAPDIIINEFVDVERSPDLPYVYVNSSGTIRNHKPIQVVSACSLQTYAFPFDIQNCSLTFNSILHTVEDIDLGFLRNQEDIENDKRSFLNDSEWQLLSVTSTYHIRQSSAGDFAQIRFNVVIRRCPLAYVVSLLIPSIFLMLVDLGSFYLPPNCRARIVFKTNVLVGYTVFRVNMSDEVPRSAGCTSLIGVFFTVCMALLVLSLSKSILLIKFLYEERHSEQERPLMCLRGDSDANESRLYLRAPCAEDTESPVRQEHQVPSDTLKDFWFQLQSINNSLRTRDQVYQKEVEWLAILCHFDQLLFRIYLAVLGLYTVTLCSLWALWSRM

CC(C)n1cnc2c(C(=O)NC3CC4CCC(C3)N4C)cc(Cl)cc21 (configuration not stated)
Ki [1]: 0.02 µM | Ki [2]: 0.001 µM | Ki [3]: 0.158 µM

CC(C)n1cnc2c(C(=O)N[C@H]3CN4CCC3CC4)cc(Cl)cc21
Ki [3]: 0.024 µM

COc1cc(N)c(Cl)cc1C(=O)N[C@@H]1CN2CCC1CC2
Ki [3]: 0.437 µM

COc1cc(N)c(Cl)cc1C(=O)N[C@H]1CN2CCC1CC2 [(R)ZACOPRIDE]
Ki [3]: 2.82 µM | Ki [4]: 0.00372 µM

— ChEMBL document CHEMBL1128980, “(R)-3-(6-chloro-1-isopropylbenzimidazole-4-carboxamido)quinuclidine: A high affinity ligand for the (R)-zacopride binding site” (Bioorg Med Chem Lett, 1996)
